Measured values as given in patent publication US8653091B2, “Pyrid-2yl fused heterocyclic compounds, and compositions and uses thereof” (Evotec AG, priority 2007, dated 2014).

Tests used:
P2X3 = P2X3 (Homo sapiens (Human), UniProt P56373); test: Calcium uptake assay (P2X antagonist assay), P2X3; assay type: cell-based; settings: inhibition of agonist-induced calcium influx
Source text: (§1) Human P2X3 (Accession no. NM_002559), P2X2 (Accession no. NM_170682) and Rat P2X3 (Accession no. NM_031075) and P2X2 (Accession no. NM_053656) are cloned into a mammalian expression vector (e.g., pcDNA5/TO or pcDNA3 Invitrogen). The human P2X2/3 chimera clone is created as described by Neelands et al, and then cloned into an expression vector as above. Receptors are expressed in cells (e.g., HEK293 or 1321N1 (obtained from the ECACC)) via transient transfection using standard lipid mediated transfection, or by creation of stable transfectants for each receptor. For expression of the P2X2/3 heteromeric receptor, the P2X3 expression vector is stably transfected into a cell line already stably expressing P2X2. P2X2/3 heteromer function is isolated using pharmacological methods. Cell lines are maintained in DMEM+5% Glutamax, the appropriate level of selective antibiotic, and 10% heat inactivated FBS.
(§2) Functional activity of compounds at the P2X receptor is determined by measuring their ability to inhibit agonist-induced calcium influx. Compounds are tested for antagonist activity against the P2X2/3 chimera, the P2X3 homomer, or the P2X2/3 heteromer. At the start of each screening day, the agonist EC50 is determined. Compound % inhibition or IC50s are subsequently determined using a pre-determined agonist concentration (EC50-90 depending on cell line) as a stimulus. The agonists used are αβMeATP, ATP, or other ATP analogs. Compounds may be tested at concentrations ranging from 1 μM to 10 μM.
(§3) To test for antagonist activity, cells expressing the appropriate receptor are seeded onto 96 or 384 well plates 18-24 hours prior to assay. On the day of the assay, cells are loaded with calcium-sensitive fluorescent dye (e.g., Fluo-4 no wash reagent-Invitrogen cat#F36206, or the BD™ PBX Calcium Assay Kit—BD cat#640175) in Hank's Buffered Salt Solution (HESS) with up to 10 mM supplemental CaCl2. Plates are incubated at 37° C. and then equilibrated at room temperature. Antagonism of agonist-induced calcium influx is measured using a fluorescent imaging plate reader (e.g. FLIPR^TETRA, Molecular Devices, Sunnyvale, Calif.). The assay comprises two stages: a pre-treatment phase followed by a treatment phase. Compounds may be tested as follows: For the pre-treatment phase, 50 μL of 3× concentration of test compound in HBSS is added to cells containing 100 μL of dye loading media to achieve a final concentration of 1× test compound. For the treatment phase, at a set interval after pre-treatment (1-30 minutes), 50 μL of 1× test compound plus […] solution is added, resulting in a final concentration of 1× compound and 1× agonist. Fluorescence is measured at 0.1-3 second intervals—with an excitation wavelength of 494 nm and an emission wavelength of 515 nm. Responses are measured as (peak fluorescence after agonist addition) minus (baseline fluorescence prior to treatment). Percent inhibition is calculated as follows: […]
(§4) IC50 values are determined by analyzing dose response data in a 4 parameter logistic fit using GraphPad Prizm.

P2X2/3 = P2X2/3 (Homo sapiens (Human), UniProt P56373+Q9UBL9); test: Calcium uptake assay (P2X antagonist assay), P2X2/3; assay type: cell-based; settings: inhibition of agonist-induced calcium influx
Source text: as §1, §2, §3, §4

P2X2/3, sequence (Q9UBL9 whole entry): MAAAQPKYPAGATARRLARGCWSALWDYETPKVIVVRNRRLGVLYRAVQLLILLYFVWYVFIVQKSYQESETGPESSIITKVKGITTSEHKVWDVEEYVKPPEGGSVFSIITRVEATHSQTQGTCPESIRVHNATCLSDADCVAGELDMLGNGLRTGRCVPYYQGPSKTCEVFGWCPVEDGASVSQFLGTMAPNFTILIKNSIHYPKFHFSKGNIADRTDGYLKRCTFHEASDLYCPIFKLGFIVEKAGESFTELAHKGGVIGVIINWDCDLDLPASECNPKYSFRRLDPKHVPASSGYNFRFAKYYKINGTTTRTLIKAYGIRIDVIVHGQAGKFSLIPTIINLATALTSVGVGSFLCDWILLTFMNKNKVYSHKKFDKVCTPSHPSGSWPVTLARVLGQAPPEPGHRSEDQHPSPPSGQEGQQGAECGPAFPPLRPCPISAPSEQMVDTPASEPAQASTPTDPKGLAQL
P2X2/3, sequence (P56373 whole entry): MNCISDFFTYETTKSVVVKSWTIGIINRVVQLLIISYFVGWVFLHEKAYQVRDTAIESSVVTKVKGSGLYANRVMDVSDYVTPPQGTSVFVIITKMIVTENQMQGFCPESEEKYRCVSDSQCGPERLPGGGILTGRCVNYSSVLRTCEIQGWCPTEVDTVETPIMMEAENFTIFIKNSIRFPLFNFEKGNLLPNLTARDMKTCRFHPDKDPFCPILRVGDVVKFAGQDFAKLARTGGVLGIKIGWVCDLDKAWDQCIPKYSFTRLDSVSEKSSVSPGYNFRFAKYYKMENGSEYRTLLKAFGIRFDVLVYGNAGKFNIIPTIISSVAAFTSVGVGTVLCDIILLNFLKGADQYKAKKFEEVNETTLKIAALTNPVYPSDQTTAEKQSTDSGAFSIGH
P2X3, sequence (P56373 whole entry): as above

Row | Compound | IC50 (P2X3) [nM] | IC50 (P2X2/3) [nM]
1 | Cc1ccc(N2CCc3ncnc(NC(CCO)c4ccccc4)c3C2)nc1 (stereo not drawn) [Compound 32, 3-[6-(5-Methyl-pyridin-2-yl)-5,6,7,8-tetrahydro-pyrido[4,3-d]pyrimidin-4-ylamino]-3-phenyl-propan-1-ol] | 143 | 3880
2 | Cc1ccc(N2CCc3ncnc(NC(CO)c4cccnc4)c3C2)nc1 (stereo not drawn) [Compound 62, 2-[6-(5-Methyl-pyridin-2-yl)-5,6,7,8-tetrahydro-pyrido[4,3-d]pyrimidin-4-ylamino]-2-pyridin-3-yl-ethanol] | 272 | 3090
3 | Cc1ccc(N2CCc3ncnc(N[C@H](C)c4ccc(C(F)(F)F)nc4)c3C2)nc1 [Compound 50, (R)-6-(5-Methylpyridin-2-yl)-N-(1-(6-(trifluoromethyl)pyridin-3-yl)ethyl)-5,6,7,8-tetrahydropyrido[4,3-d]pyrimidin-4-amine] | 15 | 279
4 | Cc1ccc(N2CCc3ncnc(N[C@H](CCO)c4ccc(C(F)(F)F)nc4)c3C2)nc1 [Compound 63, (R)-3-[6-(5-Methyl-pyridin-2-yl)-5,6,7,8-tetrahydro-pyrido[4,3-d]pyrimidin-4-ylamino]-3-(6-trifluoromethyl-pyridin-3-yl)-propan-1-ol] | 24 | 335
5 | COc1ccc([C@@H](CO)Nc2ncnc3c2CN(c2ccc(Cl)cn2)CC3)cn1 [Compound 59, (S)-2-[6-(5-Chloro-pyridin-2-yl)-5,6,7,8-tetrahydro-pyrido[4,3-d]pyrimidin-4-ylamino]-2-(6-methoxy-pyridin-3-yl)-ethanol] | 90 | 276
6 | Cc1ccc(N2CCc3ncnc(N[C@H](C)c4ccc(Cl)cc4)c3C2)nc1 [Compound 7, [(R)-1-(4-Chloro-phenyl)-ethyl]-[6-(5-methyl-pyridin-2-yl)-5,6,7,8-tetrahydro-pyrido[4,3-d]pyrimidin-4-yl]-amine] | 48 | 1910
7 | Cc1ccc(N2CCc3ncnc(NC(C)c4ccc(F)cc4F)c3C2)nc1 (stereo not drawn) [Compound 18, [1-(2,4-Difluoro-phenyl)-ethyl]-[6-(5-methyl-pyridin-2-yl)-5,6,7,8-tetrahydro-pyrido[4,3-d]pyrimidin-4-yl]-amine] | 50 | 3070
8 | Cc1ccc(N2CCc3ncnc(NC(C)c4ccccc4F)c3C2)nc1 (stereo not drawn) [Compound 12, [1-(2-Fluoro-phenyl)-ethyl]-[6-(5-methyl-pyridin-2-yl)-5,6,7,8-tetrahydro-pyrido[4,3-d]pyrimidin-4-yl]-amine] | 88 | 4620
9 | Cc1ccc(N2CCc3ncnc(N[C@H](CO)c4ccc(C(F)(F)F)cc4)c3C2)nc1 [Compound 55, (S)-2-(6-(5-Methylpyridin-2-yl)-5,6,7,8-tetrahydropyrido[4,3-d]pyrimidin-4-ylamino)-2-(4-(trifluoromethyl)phenyl)ethanol] | 158 | 3970
10 | Cc1ccc(N2CCc3ncnc(NC(C)c4ccc(S(C)(=O)=O)cc4)c3C2)nc1 (stereo not drawn) [Compound 5, [1-(4-Methanesulfonyl-phenyl)-ethyl]-[6-(5-methyl-pyridin-2-yl)-5,6,7,8-tetrahydro-pyrido[4,3-d]pyrimidin-4-yl]-amine] | 128 | 4250
11 | COc1ccc([C@@H](CCO)Nc2ncnc3c2CN(c2ccc(Cl)cn2)CC3)cn1 [Compound 57, (R)-3-[6-(5-Chloro-pyridin-2-yl)-5,6,7,8-tetrahydro-pyrido[4,3-d]pyrimidin-4-ylamino]-3-(6-methoxy-pyridin-3-yl)-propan-1-ol] | 103 | 318
12 | Cc1ccc(N2CCc3ncnc(NC(C)c4cccc(F)c4)c3C2)nc1 (stereo not drawn) [Compound 2, [1-(3-Fluoro-phenyl)-ethyl]-[6-(5-methyl-pyridin-2-yl)-5,6,7,8-tetrahydro-pyrido[4,3-d]pyrimidin-4-yl]-amine] | 56 | 2430
